Laboratory results as given in patent US9072707B2, “Use of C-terminal domain of IGFBP-5 comprising heparin-binding domain as an angiogenesis inhibitor” (RESEARCH & BUSINESS FOUNDATION SUNGKYUNKWAN UNIVERSITY, priority 2012, dated 2015).

How the values were obtained:
[1] = test system: HUVEC; assay: Migration (scratch) assay; assay type: cell-based, human; details: 60 μg/ml peptide, 36 h pretreatment, overnight, FIG. 6b
Experimental: In order to examine the influence of each domain peptide of IGFBP-5 on the migration of HUVEC cells, HUVEC cells were seeded onto a 12-well plate at a density of 1×10^5 cells/well, and then treated with 60 μg/ml of each of the peptides for 36 hours. Specifically, the cells were treated with each of the peptides for 7 hours, and then treated overnight with a fresh peptide.
The plate was scratched with a 200-μl micropipette tip, and treated overnight with 60 μg/ml of a fresh peptide, after which the migration of the cells was observed. For this purpose, the cells were photographed under a microscope at 0 hour and the overnight time point. In addition, for a control group, cells were treated with PBS.

[2] = test system: VEGF; assay: RT-PCR analysis of VEGF gene expression in 2774 ovarian cancer cell line; assay type: cell-based
Experimental: (§1) A plasmid (pSecTaq2/Hygro A, Invitrogen) (2 μg/dish (100 mm dish)) that expresses the C-terminal domain (SEQ ID NO: 1), L-domain (SEQ ID NO: 2) and N-terminal domain (SEQ ID NO: 3) of IGFBP-5 was transfected into the 2774 ovarian cancer cell line using Lipofectamine 2000 (Invitrogen). The transfection was performed according to the method provided by Invitrogen.
(§2) At 24 hours after transfection, viable colonies were collected in DMEM (+10% FBS+penicillin and hygromycin) containing hygromycin (500 μg/ml), and then positive colonies were selected by a Western blot method using Myc antibody.
(§3) The […] cell line was treated overnight with various concentrations or 60 μg/ml of the peptides synthesized in Example 4, after which the cell line was additionally treated with fresh peptides for 7 hours. The cell line was treated for a total of 24 hours. Then, the cells were lysed with Trizol (Invitrogen), and RNA was isolated from the cells. cDNA was synthesized from the isolated […] using oligo dT and superscriptase III (Invitrogen), and then subjected to RT-PCR.
(§4) However, the PCR reaction using TNF-a primers was performed for 35 cycles at an annealing temperature of 57° C.

[3] = test system: HUVEC; assay: Tube formation assay on Matrigel; assay type: cell-based, human; details: 60 μg/ml peptide, 24 h pretreatment, 6 h on Matrigel; FIG. 6a
Experimental: In order to examine the influence of each domain peptide of IGFBP-5 on the tube formation of HUVEC cells, HUVEC cells were plated onto a 6-well plate at a density of 1×10^5 cells/well, and then treated with 60 μg/ml of each of the peptides for 24 hours.
Before a tube formation assay, growth factor-reduced Matrigel (BD Bioscience) diluted to 1:2 with PBS was added to a 24-well plate in an amount of 300 μl/well, and then solidified at 37° C. for 1 hour. The HUVEC cells treated with each of the peptides for 24 hours were trypsinized, suspended in 300 μl of EGM medium (diluted to 1:3 with EBM medium) and treated with 60 μg/ml of a fresh peptide, and then the cells were incubated on the prepared Matrigel for 6 hours.

[4] = test system: IL-6; assay: RT-PCR analysis of IL-6 gene expression in 2774 ovarian cancer cell line; assay type: cell-based
Experimental: as §1, §2, §3, §4

[5] = test system: TNF-α; assay: RT-PCR analysis of TNF-alpha gene expression in 2774 ovarian cancer cell line; assay type: cell-based
Experimental: as §1, §2, §3, §4

[6] = test system: 2774-GFP cell line; assay: Ovarian cancer animal model, intraperitoneal 2774-GFP cells; assay type: in vivo, nude mouse; details: 30 mg/kg intraperitoneally 8 times at intervals of 2-3 days, FIG. 7
Experimental: Each of 5-week-old nude mouse was intraperitoneally injected with 5×10^6 2774 cells that express GFP.
In this experiment, 8 mice were injected with the BP5-C peptide, and for a control group, 7 mice were injected with PBS.

[7] = test system: 2774 ovarian cancer cell line; assay: Subcutaneous tumor growth of 2774 cell lines expressing IGFBP-5 truncation mutants; assay type: in vivo, nude mouse; details: nude mice injected subcutaneously with 2774 cells expressing the domain, compared to Vec/2774; FIGS. 2a, 2b
Experimental: A 5-week-old nude mouse subcutaneously injected with 1×10^6 cells that express the truncation mutant of IGFBP-5, and then the tumor volume of the mice was measured at intervals of 3-4 days. In this experiment, two mice were used for each of the cell lines, and each of the cell lines was injected into two points of each mouse. This experiment was repeated three times.

[8] = 2774 cells treated with 60 μg/ml of each peptide, FIG. 5A
[9] = 2774 cells treated with peptide at 30, 60 and 100 μg/ml, FIG. 3A
[10] = 2774 cell line stably expressing the domain, FIG. 1B

| Molecule | migration of HUVEC [1] | expression of VEGF gene [2, 8] | tube formation of HUVEC [3] | expression of IL-6 gene [4, 8] | expression of TNF-α gene [5, 8] | tumor volume of collected tumors ([6]; compared to animals injected with PBS) | tumor growth ([6]; compared to control group (PBS)) | expression of VEGF gene [2, 9] | expression of IL-6 gene [4, 9] | expression of TNF-α gene [5, 9] | expression of VEGF gene [2, 10] | growth of cancer (tumor volume) [7] | expression of IL-6 gene [4, 10] | expression of TNF-a gene [5, 10] |
| --- | --- | --- | --- | --- | --- | --- | --- | --- | --- | --- | --- | --- | --- | --- |
| BP2-C: C-terminal domain peptide of IGFBP-2 including IGF-1-binding domain, amino acids 228-245, KHGLYNLKQCKMSLNGQR (SEQ ID NO: 7) [reference compound] | did not inhibit | no effect | no influence | no effect | no effect | – | – | – | – | – | – | – | – | – |
| BP2-HBD: heparin-binding domain derived from IGFBP-2, amino acids 171-188, KHHLGLEEPKKLRPPPAR (SEQ ID NO: 6) [reference compound] | did not inhibit | no effect | no influence | no effect | no effect | – | – | – | – | – | – | – | – | – |
| BP5-C: amino acids 201-218 of IGFBP-5, RKGFYKRKQCKPSRGRKR (SEQ ID NO: 4) | inhibited | inhibited | inhibited | inhibited | inhibited | significantly reduced | significantly inhibited | inhibited | inhibited | inhibited | – | – | – | – |
| BP5-mut: IGFBP-5 201-218 with G203A and Q209A mutations, RKAFYKRKACKPSRGRKR (SEQ ID NO: 5) | inhibited | inhibited | inhibited | inhibited | inhibited | – | – | – | – | – | – | – | – | – |
| C-terminal domain: domain consisting of amino acids 169-252 of IGFBP-5 (SEQ ID NO: 1), stably expressed in 2774 cells (C/2774) (protein) QGPCRRHMEASLQELKASPRMVPRAVYLPNCDRKGFYKRKQCKPSRGRKRGICWCVDKYGMKLPGMEYVDGDFQCHTFDSSNVE | – | – | – | – | – | – | – | – | – | – | significantly inhibited | significantly inhibited | significantly inhibited | significantly inhibited |
